Test results reported in patent US10829520B2, “Beta-hairpin peptidomimetics” (POLYPHOR AG, priority 2015, dated 2020).
Where a SMILES comes first, the peptide text is derived from it. Bridges are numbered along the chain shown (N, C = ends). [ ]: non-standard residue; d: D form. The star is where a group is joined. NαAmidinoTrp = N=C(N)N[C@@H](Cc1c[nH]c2ccccc12)C(=O)*; NMeW = CN[C@@H](Cc1c[nH]c2ccccc12)C(=O)O; Hyp = O=C(O)[C@@H]1C[C@@H](O)CN1; Pen = CC(C)(S)[C@H](N)C(=O)O; Tle = CC(C)(C)[C@H](N)C(=O)O; dDab = NCC[C@@H](N)C(=O)O; Orn = NCCC[C@H](N)C(=O)O; Dab = NCC[C@H](N)C(=O)O; dAze = O=C(O)[C@H]1CCN1; Sar = CNCC(=O)O

Experiments:
Assay type in all cases: cell-based
Escherichia coli 926415 = conditions: 926415
[1] = tested on: Pseudomonas aeruginosa ATCC 27853; conditions: ATCC 27853
Outline: (§1)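 MIC in μg/mL read as absence of visible growth after 18-20 h incubation at 35° C. Bacteria at about 10^6 CFU/mL in MH-II (cation-adjusted) broth plus 0.002% P-80 were exposed to two-fold peptide dilutions per standard CLSI microdilution.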

[2] = tested on: Klebsiella pneumoniae 968733; conditions: 968733
[3] = tested on: Acinetobacter baumannii DSM 30008; conditions: DSM 30008
Outline: as §1

[4] = tested on: Escherichia coli ATCC 25922; conditions: ATCC 25922
Outline: as §1

[5] = tested on: Klebsiella pneumoniae SSI #3010; conditions: SSI #3010
Outline: as §1

[6] = tested on: Acinetobacter baumannii 872842; conditions: 872842
[7] = tested on: human red blood cells (hRBC); experiment: Hemolysis of human red blood cells; conditions: red cells of human, 1 h
Outline: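 Fresh human red blood cells are washed in PBS, then shaken with peptide (100 μg/mL) at 37° C. for 1 h, final erythrocyte density about 0.9×10^9 cells/mL. After centrifugation, diluted supernatants are read at 540 nm against buffer (0%) and Triton X-100 (100%) lysis controls.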

Row | SMILES | Escherichia coli 926415 MIC (Escherichia coli 926415) | Pseudomonas aeruginosa ATCC 27853 MIC [1] | Klebsiella pneumoniae 968733 MIC [2] | Acinetobacter baumannii DSM 30008 MIC [3] | Escherichia coli ATCC 25922 MIC [4] | Klebsiella pneumoniae SSI #3010 MIC [5] | Acinetobacter baumannii 872842 MIC [6] | Hemolysis at 100 μg/mL ([7]; 100 μg/mL) | Hemolysis at 100 μg/mL [7]; 100
1 | CC(=O)N[C@@H](CC(C)C)C(=O)N[C@@H](CO)C(=O)N[C@H](C(=O)N[C@H]1CSSC[C@@H](C(=O)N[C@@H](Cc2ccc(O)cc2)C(=O)N[C@@H](CC(N)=O)C(=O)N[C@@H](CCCN)C(=O)N[C@H](CCN)C(=O)N[C@@H](CCN)C(=O)N[C@@H](CCN)C(=O)N[C@H]2CCNC(=O)[C@H]([C@@H](C)O)NC(=O)[C@H](CCN)NC(=O)[C@H](CCN)NC(=O)[C@H](CC(C)C)NC(=O)[C@@H](Cc3ccccc3)NC(=O)[C@H](CCN)NC2=O)NC(=O)[C@H](CC(C)C)NC(=O)[C@H](CCCNC(=N)N)NC(=O)[C@@H](CCN)NC(=O)[C@H](C(C)C)NC1=O)C(C)(C)C [Ex. 171] (Ac-LS[Tle]CV[dDab]RLCYN[Orn][dDab][Dab][Dab][Dab][Dab][dF]L[Dab][Dab]T; disulfide 4-9; lactam 16-C) | 2 µg/mL | 0.5 µg/mL | 4 µg/mL | 2 µg/mL | 1 µg/mL | 1 µg/mL | 2 µg/mL | 2% | –
2 | CC(C)C[C@@H]1NC(=O)[C@@H](CC(C)C)NC(=O)[C@H](CCN)NC(=O)[C@@H](NC(=O)[C@H](CCN)NC(=O)[C@H](CCN)NC(=O)[C@H](CCN)NC(=O)CNC(=O)[C@H](CCN)NC(=O)[C@H](Cc2ccc(O)cc2)NC(=O)[C@@H]2CCNC(=O)C[C@H](NC(=O)[C@@H](NC(=O)[C@H](CCN)NC(=O)[C@H](Cc3c[nH]c4ccccc34)NC(=N)N)C(C)C)C(=O)N[C@@H](Cc3ccc(O)cc3)C(=O)N3CCC[C@@H]3C(=O)N3CCC[C@H]3C(=O)N[C@@H](C(C)C)C(=O)N2)CCNC(=O)[C@H]([C@@H](C)O)NC(=O)[C@H](CCN)NC(=O)[C@H](CCN)NC1=O [Ex. 172] (NαAmidinoTrp-[Dab]VDY[dP]PV[Dab]Y[Dab]G[Dab][Dab][Dab][Dab][Dab][dL]L[Dab][Dab]T; lactam 3-8, 15-C) | 0.5 µg/mL | 0.125 µg/mL | 0.5 µg/mL | 0.0625 µg/mL | 0.0625 µg/mL | 0.125 µg/mL | 0.25 µg/mL | – | 1%
3 | CC(C)C[C@@H]1NC(=O)[C@@H](CC(C)C)NC(=O)[C@H](CCN)NC(=O)[C@@H](NC(=O)[C@H](CCN)NC(=O)[C@@H](NC(=O)[C@H](CCN)NC(=O)CNC(=O)[C@H]2NC(=O)[C@H](Cc3ccc(O)cc3)NC(=O)[C@H](CO)NC(=O)[C@H](CC(C)C)NC(=O)[C@@H]3CCCN3C(=O)[C@H]3CCCN3C(=O)[C@H](CO)NC(=O)[C@H](C)NC(=O)[C@H](C(C)C)NC(=O)[C@@H](NC(=O)[C@H](Cc3c[nH]c4ccccc34)NC(=N)N)CSSC2(C)C)[C@@H](C)O)CCNC(=O)[C@H]([C@@H](C)O)NC(=O)[C@H](CCN)NC(=O)[C@H](CCN)NC1=O [Ex. 173] (NαAmidinoTrp-CVAS[dP]PLSY[Pen]G[Dab]T[Dab][Dab][Dab][dL]L[Dab][Dab]T; disulfide 1-10; lactam 15-C) | 0.5 µg/mL | 0.5 µg/mL | 1 µg/mL | 0.125 µg/mL | 0.125 µg/mL | 0.125 µg/mL | 0.25 µg/mL | 1% | –
4 | CN[C@@H](Cc1c[nH]c2ccccc12)C(=O)N[C@H]1CSSC[C@@H](C(=O)N(C)CC(=O)N[C@@H](CCN)C(=O)N[C@H](C(=O)N[C@@H](CCN)C(=O)N[C@H]2CCNC(=O)[C@H]([C@@H](C)O)NC(=O)[C@H](CCN)NC(=O)[C@H](CCN)NC(=O)[C@H](CC(C)C)NC(=O)[C@@H](CC(C)C)NC(=O)[C@H](CCN)NC2=O)[C@@H](C)O)NC(=O)[C@H](Cc2ccc(O)cc2)NC(=O)[C@H]([C@@H](C)O)NC(=O)[C@H](C(C)C)NC(=O)[C@@H]2C[C@@H](O)CN2C(=O)[C@@H](C)NC(=O)[C@H]([C@@H](C)O)NC(=O)[C@H](C)NC(=O)[C@H](C(C)C)NC1=O [Ex. 175] (H-[NMeW]CVAT[dA][Hyp]VTYC[Sar][Dab]T[Dab][Dab][Dab][dL]L[Dab][Dab]T; disulfide 2-11; lactam 16-C) | 0.5 µg/mL | 0.25 µg/mL | 0.5 µg/mL | 0.0625 µg/mL | 0.0625 µg/mL | 0.0625 µg/mL | 1 µg/mL | <1% | –
5 | CN[C@@H](Cc1c[nH]c2ccccc12)C(=O)N[C@@H](CCN)C(=O)N[C@H](C(=O)N[C@H]1CC(=O)NCC[C@@H](C(=O)N[C@@H](Cc2ccc(O)cc2)C(=O)N[C@@H](CCN)C(=O)N(C)CC(=O)N[C@@H](CCN)C(=O)N[C@H](C(=O)N[C@@H](CCN)C(=O)N[C@H]2CCNC(=O)[C@H]([C@@H](C)O)NC(=O)[C@H](CCN)NC(=O)[C@H](CCN)NC(=O)[C@H](CC(C)C)NC(=O)[C@@H](CC(C)C)NC(=O)[C@H](CCN)NC2=O)[C@@H](C)O)NC(=O)[C@H](C(C)C)NC(=O)[C@@H]2CCCN2C(=O)[C@H]2CCN2C(=O)[C@H]([C@@H](C)O)NC1=O)C(C)(C)C [Ex. 176] (H-[NMeW][Dab][Tle]DT[dAze]PV[Dab]Y[Dab][Sar][Dab]T[Dab][Dab][Dab][dL]L[Dab][Dab]T; lactam 4-9, 16-C) | 0.0625 µg/mL | 0.25 µg/mL | 0.25 µg/mL | 0.03125 µg/mL | 0.03125 µg/mL | 0.0625 µg/mL | 0.5 µg/mL | – | <1%
6 | CC(C)C[C@@H]1NC(=O)[C@@H](Cc2ccccc2)NC(=O)[C@H](CCN)NC(=O)[C@@H](NC(=O)[C@H](CCN)NC(=O)[C@@H](CCN)NC(=O)[C@@H](NC(=O)[C@H](CCCN)NC(=O)[C@@H]2CSSC[C@H](NC(=O)[C@@H](N)Cc3c[nH]c4ccccc34)C(=O)N[C@@H](C(C)C)C(=O)N[C@@H](C)C(=O)N[C@@H](CO)C(=O)N3CCC[C@@H]3C(=O)N3CCC[C@H]3C(=O)N[C@@H](C(C)C)C(=O)N[C@@H](CO)C(=O)N[C@@H](Cc3ccc(O)cc3)C(=O)N2)[C@@H](C)O)CCNC(=O)[C@H]([C@@H](C)O)NC(=O)[C@H](CCNC(=O)[C@@H](N)CCCNC(=N)N)NC(=O)[C@H](CCN)NC1=O [Ex. 177] (H-WCVAS[dP]PVSYC[Orn]T[dDab][Dab][Dab][Dab][dF]L[Dab][Dab](Arg)T; disulfide 2-11; lactam 16-C) | 2 µg/mL | 0.5 µg/mL | 2 µg/mL | 1 µg/mL | 1 µg/mL | 1 µg/mL | 2 µg/mL | 1.4% | –
7 | CC(C)C[C@@H]1NC(=O)[C@@H](CC(C)C)NC(=O)[C@H](CCN)NC(=O)[C@@H](NC(=O)[C@H](CCN)NC(=O)[C@@H](NC(=O)[C@H](CCN)NC(=O)CN(C)C(=O)[C@@H]2CSSC[C@H](NC(=O)[C@@H](N)Cc3c[nH]c4ccccc34)C(=O)N[C@@H](C(C)C)C(=O)N[C@@H](C)C(=O)N[C@@H](CO)C(=O)N3CCC[C@@H]3C(=O)N3CCC[C@H]3C(=O)N[C@@H](CC(C)C)C(=O)N[C@@H](CO)C(=O)N[C@@H](Cc3ccc(O)cc3)C(=O)N2)[C@@H](C)O)CCNC(=O)[C@@H]([C@H](C)O)NC(=O)[C@H](CCN)NC(=O)[C@H](CCN)NC1=O [Ex. 178] (H-WCVAS[dP]PLSYC[Sar][Dab]T[Dab][Dab][Dab][dL]L[Dab][Dab][dT]; disulfide 2-11; lactam 16-C) | 1 µg/mL | 4 µg/mL | 8 µg/mL | 1 µg/mL | 0.5 µg/mL | 0.5 µg/mL | 2 µg/mL | <1% | –
8 | CC(C)C[C@@H]1NC(=O)[C@@H](CC(C)C)NC(=O)[C@H](CCN)NC(=O)[C@@H](NC(=O)[C@H](CCN)NC(=O)[C@@H](NC(=O)[C@H](CCN)NC(=O)CN(C)C(=O)[C@@H]2CSSC[C@H](NC(=O)[C@@H](N)Cc3c[nH]c4ccccc34)C(=O)N[C@@H](C(C)C)C(=O)N[C@@H](C)C(=O)N[C@@H](CO)C(=O)N3CCC[C@@H]3C(=O)N3CCC[C@H]3C(=O)N[C@@H](CC(C)C)C(=O)N[C@@H](CO)C(=O)N[C@@H](Cc3ccc(O)cc3)C(=O)N2)[C@@H](C)O)CCNC(=O)[C@H](C(C)C)NC(=O)[C@H](CCN)NC(=O)[C@H](CCN)NC1=O [Ex. 179] (H-WCVAS[dP]PLSYC[Sar][Dab]T[Dab][Dab][Dab][dL]L[Dab][Dab]V; disulfide 2-11; lactam 16-C) | 0.125 µg/mL | 1 µg/mL | 0.5 µg/mL | 0.0625 µg/mL | 0.0625 µg/mL | 0.125 µg/mL | 0.0625 µg/mL | <1% | –
